pIC50: −log10 of the molar value.
How the values were obtained:
Assay type in all cases: functional, cell-based
DLD-1 = experiment: Antiproliferative activity against human colon cancer cell line (DLD-1 cells) using MTT assay
LoVo = experiment: Antiproliferative activity against human colon cancer cell line (LoVo cells) using MTT assay
[1] = Antiproliferative activity against burkit lymphoma cell line (ST-486 cells) using MTT assay; details: Homo sapiens
HUVEC = experiment: Antiproliferative activity against human umbilical vein endothelial cells (HUVECs) using MTT assay

Structure (SMILES) | pIC50 (DLD-1) | pIC50 (LoVo) | pIC50 [1] | pIC50 (HUVEC)
CN(C)CCN1C(=O)C(c2c[nH]c3ccccc23)=C(c2cn(CCOCCO)c3ccccc23)C1=O | 4.40 | 5.15 | 5.00 | 5.15
CN(C)CCN1C(=O)C(c2c[nH]c3ccccc23)=C(c2c[nH]c3ccccc23)C1=O | < 4.00 | < 4.00 | < 4.00 | 4.52
O=C1NC(=O)C(c2cn(CCOCCO)c3ccccc23)=C1c1c[nH]c2ccccc12 | 5.22 | 4.70 | 5.70 | 5.70
CN(C)CCOCCn1cc(C2=C(c3c[nH]c4ccccc34)C(=O)NC2=O)c2ccccc21 | < 4.00 | < 4.00 | 5.00 | 4.70
CN(C)CCOCCn1cc(C2=C(c3c[nH]c4ccccc34)C(=O)N(CCN(C)C)C2=O)c2ccccc21 | < 4.00 | < 4.00 | 4.52 | 4.60
CNCCOCCn1cc(C2=C(c3c[nH]c4ccccc34)C(=O)N(CCN(C)C)C2=O)c2ccccc21 | < 4.00 | < 4.00 | 4.70 | 4.30
CN[C@@H]1C[C@H]2O[C@@](C)([C@@H]1OC)n1c3ccccc3c3c4c(c5c6ccccc6n2c5c31)C(=O)NC4 [STAUROSPORINE] | 8.05 |  | 8.15 | 8.40
Cc1ccc(C(=O)Nc2ccc(S(=O)(=O)O)c3cc(S(=O)(=O)O)cc(S(=O)(=O)O)c23)cc1NC(=O)c1cccc(NC(=O)Nc2cccc(C(=O)Nc3cc(C(=O)Nc4ccc(S(=O)(=O)O)c5cc(S(=O)(=O)O)cc(S(=O)(=O)O)c45)ccc3C)c2)c1 [SURAMIN] |  |  |  | 3.30

Reference: ChEMBL document CHEMBL1133806, “Synthesis and biological evaluation of novel bisindolylmaleimides that inhibit vascular endothelial cell proliferation” (Bioorg Med Chem Lett, 2001)
